The values below come from a melting point compilation (Tetko et al.; mined from patent text by program, amines drawn as free bases though some values may be those of a salt).

Each structure is given as a SMILES string.

Turning to `Cn1cc(-c2ccc(Cl)c(Cl)c2)c(=O)c(-c2ccccc2Cl)c1`, the melting point (usually the temperature of the solid-liquid transition) was 169 to 171 °C.
The figure for `COc1[nH]c(C)cc1C#N` is 105 °C.
With `CS(=O)(=O)OC1Cc2ccccc2C1`, the melting point was 75 to 77 °C.
Compound `Cc1nc(N2CCOCC2)c2c(n1)N(CC(O)CO)C(=O)CO2` (configuration not stated) yielded a melting point of 153 to 155 °C.
The compound `CCOC(=O)C1=C(C)NC(C)=C(C(=O)OCC)C1c1ccccc1[N+](=O)[O-]` yielded a melting point of 120 to 121 °C.
The figure for `CN1CCN(c2cccc3c2C[C@H](NC(=O)Cc2ccccc2)CC3)CC1` is 151 to 152 °C; for `O=C(Nc1ccc(Cl)c(Cl)c1)NS(=O)(=O)c1ccc(Cl)cc1` it is 195 to 196 °C.
As to `CCN(CC)CCOc1ccc(Nc2ncc3c(n2)N(c2cccc(CCN)c2)C(=O)N(c2ccc(Cl)cc2Cl)C3)cc1`, the melting point came out at 108 °C.
The figure for `CCOC(=O)c1cn(C(C)CCl)c2c(F)c(F)c(F)cc2c1=O` (configuration not stated) is 190 to 191 °C; for `COC(=O)C1(C)CN(C(=S)Nc2ccc(Cl)cc2)N=C1c1ccc(Cl)cc1` (configuration not stated) it is 69 to 78 °C; for `Cc1c(N2CC[C@H](N(C)C)C2)c(F)c(N)c2c(=O)c(C(=O)O)cn(C3CC3)c12` it is 204 to 206 °C.
The figure for `COc1ccc(S(=O)(=O)Nc2cccnc2Nc2ccccc2OC)cc1` is 159 to 160 °C; for `NC(CNCC(N)=NO)=NO` it is 135 to 136 °C; for `CON=C(C(=O)O)c1cccc(NC(=O)C(F)(F)F)n1` it is 194 to 195 °C.
The figure for `CCN1C(=O)C(C)(C)C(=O)N(C)c2cc(CN(CCn3ccc4sccc4c3=O)Cc3cccnc3C)ccc21` is 139 to 140 °C; for `O=C1N(Cc2ccc(-c3noc(C(F)(F)F)n3)cc2)c2ccccc2C12COc1cc3c(cc12)CCO3` (configuration not stated) it is 178 to 179 °C; for `C#CCN1C(=O)C(C)Oc2cc(Cl)c(-c3ccc(C(F)(F)F)n(C)c3=O)cc21` (configuration not stated) it is 203 to 204 °C.
On to `COc1cc(C(=O)N2CCC(CCN3CCC(C(=O)c4nc5ccccc5n4Cc4ccccn4)CC3)(c3ccc(Cl)c(Cl)c3)C2)cc(OC)c1OC` (configuration not stated), for which the melting point fell in the range of 110 to 115 °C.
To `Cc1cccc(C(=O)Nc2nc(=O)c3ccccc3[nH]2)c1` belongs 211 to 213 °C.
The figure for `C=CCNC(=O)C1CCc2ccccc2O1` (configuration not stated) is 76 to 77 °C.
`CCCOc1cc2ccccc2c2c(=O)c(-c3ccoc3)c[nH]c12` had a melting point of 252 to 254 °C.
`CCn1cc(C(=O)O)c(=O)c2cc(F)c(N3CCC(N)C3)c(F)c21` (configuration not stated) gave a melting point of 240 to 242 °C.
To `CCCCCCNc1nc(N)nc2c1ncn2C1CC(F)C(CO)O1` (configuration not stated) belongs 50 to 51 °C; to `Clc1ccc2nc(Cl)c3nnc(-c4ccccc4)n3c2c1`, 305 to 307 °C.
With `N#CCNC(=O)C1CC1`, the melting point lay in the range of 91 to 92 °C.
On to `COC(=O)CC1=C(C)Cc2cc(F)c(F)cc21`, for which the melting point fell in the range of 86 to 90 °C.
To `O=C(CCCCCCC(=O)N1CCN(CC(c2ccccc2)c2ccccc2)CC1)NO` belongs 117 to 118 °C; to `CCOC(=O)C(=CNc1nnc(N2CCOC(C)C2)s1)C(=O)OCC` (configuration not stated), 89 to 91 °C; to `COc1cc(C2CCN(C[C@H](O)CO)CC2)ccc1Nc1ncc2ccc(-c3ccccc3N(C)S(C)(=O)=O)n2n1`, 108 to 116 °C.
The figure for `Cn1c(=O)c(-c2c(Cl)cccc2Cl)cc2cnc(Nc3ccccc3)nc21` is 247 to 249 °C; for `COc1ccc(-n2nc(-c3ccc(OC)c(CCC(=O)N(C)O)c3OC)cc2-c2ccc(Cl)cc2)cc1` it is 90 to 92 °C; for `CCOC(=O)Nc1nc(-c2ccccc2)c(-c2nc3ccccc3c(=O)n2-c2ccc(C(C)=O)cc2)s1` it is 245 to 247 °C.
`Cc1[nH]cnc1Cc1cn(C)c2ccccc2c1=O` yielded a melting point of 110 to 113 °C.
The figure for `CNC(=O)NCCn1c(-c2ccc(CN3CCOCC3)c(C)c2)csc1=Nc1ccc(F)c(C)c1` is 139 to 140 °C.
Take `CC(C)(C)OC(=O)Nc1sc(Cl)nc1Cl`: the melting point was in the range of 111 to 112 °C.
The figure for `O=C(NCCC1CC1)c1ccnc(N2CCN(Cc3ccc(F)cc3)C2=O)c1` is 123 to 125 °C; for `O=C(NC1CCN(CCCCc2cc(F)cc3c2-c2ccc(F)cc2C3C(=O)NCC(F)(F)F)CC1)c1ccccc1` (configuration not stated) it is 177 to 179 °C; for `C=CCC1C(=NO)C2CCC1CC2` (configuration not stated) it is 124 to 125 °C.
The compound `Cc1ccc(CCCc2c(C(C)C)nc(C(C)C)c(CO)c2-c2ccc(F)cc2)cc1` had a melting point of 79 to 80 °C.
To `COc1cc(OC)nc(NC(=O)NS(=O)(=O)c2ccccc2C2CO2)n1` (configuration not stated) belongs 177 to 179 °C; to `O=[N+]([O-])c1ccc(SSc2nc3ccccc3s2)c(C(Cl)(Cl)Cl)c1`, 97 °C.
To `COc1cccc(CC(=O)O)c1OCCn1cc(C(=O)NCc2ccc(Cl)cc2Cl)c(OC(C)C)n1` belongs 154 to 155 °C.
The figure for `CNC1=NN(C(=O)c2ccccc2F)C(C)(C)S1` is 136 to 140 °C.
`COc1ccccc1NC(C)C(=O)O` (configuration not stated) displayed a melting point of 205 to 208 °C.
Turning to `O=C(CCN1CCN(c2cnc3ccccc3c2)CC1)c1csc2ccccc12`, the melting point lay within 112 to 114 °C.
For `COc1cccc(-c2nn(Cc3ccccc3)c3ncnc(Cl)c23)c1`, the melting point lay within 99 to 101 °C.
Compound `COc1ccc(CCCS(=O)(=O)c2ccc(S(N)(=O)=O)s2)cc1` came in with a melting point of 136 to 138 °C.
Compound `Cc1sc(N2CCOCC2)nc1CCOc1ccc(C[C@H](Nc2ccccc2C(=O)c2ccccc2)C(=O)O)cc1` returned a melting point of 148 to 151 °C.
`Cc1c(Br)c(Br)nn1C(C)C(=O)N(C)C(C)C` (configuration not stated) displayed a melting point of 95 to 96.5 °C.
The figure for `N#CC(C#N)=C1Sc2cnn(-c3ccccc3)c(=O)c2S1` is 240 °C; for `Nc1ccccc1-c1cc2[nH]c3ccccc3c2c2c1C(=O)NC2=O` it is over 300 °C; for `Nc1cnc2cc(F)c(F)cc2c1` it is 155 °C.
As to `COC(=O)C1=C(CCc2ccccc2)NC(CC(=O)N2CCN(C)CC2)=C(C(=O)OC)C1c1ccccc1Cl` (configuration not stated), the melting point is 138 °C.
On to `NC(=O)CNC(=O)c1ccnc(-c2cccc3cc(COc4cccc(C(F)(F)F)c4)sc23)c1`, for which the melting point is 185 to 186 °C.
The figure for `Cn1cc(S(=O)(=O)Cl)c(=O)c2cc(F)c(Cl)cc21` is over 300 °C; for `CC(C)n1cc(C(=O)Nc2nccs2)c2ccc(S(C)(=O)=O)cc21` it is 247 to 249 °C; for `CCCCN(CCCC)C(=O)CC1(c2ccc(OCOC)cc2)NCC(c2ccc3c(c2)OCO3)C1C(=O)O` (configuration not stated) it is 48 to 49 °C.
To `COC(=O)CCC(=NOCc1ccc(OCc2nc(-c3ccccc3)oc2C)c(OC)c1)c1ccccc1` belongs 112 to 114 °C; to `O=C(NCCc1cccc(-c2nc(=O)c3ccccc3s2)n1)c1ccccc1`, 202 to 203 °C; to `CC1(C)CCC(C)(C)c2cc(C(N)COc3ccc(C(=O)O)c(O)c3)ccc21` (configuration not stated), 241 to 242 °C.
The figure for `Cn1c(CC#N)ccc1C(=O)c1cccc(Cl)c1` is 122 to 127 °C; for `COc1ccc(S(N)(=O)=O)cc1C(O)C(C)N=[N+]=[N-]` (configuration not stated) it is 109 to 110 °C; for `CCCC(=O)N[C@H]1CC[C@H](CCN2CCN(c3nccc4c3OCC4)CC2)CC1` it is 183 °C.
`CCc1nn2ccccc2c1[N+](=O)[O-]` registered a melting point of 118 to 121 °C.
To `NC(=O)c1ccc(OCCNCC(O)COc2nccnc2Cl)cc1` (configuration not stated) belongs 134 to 135 °C.
The figure for `Cc1ccc(S(=O)(=O)OCC(C)(C)CS(N)(=O)=O)cc1` is 59 to 61 °C; for `Nc1nnc(-c2cccc(F)c2F)c(N)n1` it is 229 to 230 °C.
The figure for `CCCCc1nc2c(N)nc3ccccc3c2n1CCCCNC(=O)Nc1cccc(NC(=O)NCCCCn2c(CCCC)nc3c(N)nc4ccccc4c32)c1` is 160 to 166 °C.
As to `Cn1c2c(c3cccc(C(=O)O)c31)CCCC2`, the melting point is 180 °C.
Turning to `CC1(C)CCC(C)(C)c2cc(C(O)COc3ccc(CO)c(O)c3)ccc21` (configuration not stated), the melting point was 110 to 115 °C.
The figure for `COc1ccc(CCNCC(O)c2cc(OCc3ccccc3)cc(OCc3ccccc3)c2)cc1OC` (configuration not stated) is 85 to 86 °C; for `CC(C)(C)OC(=O)N[C@@H](CC(=O)NCCC(=O)OCc1ccccc1)C(=O)OCc1ccccc1` it is 77 to 78 °C; for `CNCc1cc2cc(Nc3nc(N)n(C(=O)c4cccc(C)c4)n3)ccc2o1` it is 128 to 131 °C.
As to `CN(C)c1cc(C(O)CNC(C)(C)C)ccc1O` (configuration not stated), the melting point lay within 108 to 110 °C.
To `COc1ccc(CN2C(=O)C3(COc4cc5onc(C)c5cc43)c3ccccc32)cc1` (configuration not stated) belongs 138 to 139 °C.
Turning to `CC1(C)CC(=O)C(c2cccc(Cl)c2)C(=O)C1`, the melting point was 155 to 158 °C.
The compound `CCc1nn(C(C)CCCc2ccccc2)c2nc(Cc3ccc(-c4cccc(N)c4)cc3)[nH]c(=O)c12` (configuration not stated) displayed a melting point of 108 °C.
To `CC1(C)[C@@H]2CC3[C@H](C(=O)O)[C@@]3(C)C[C@@H]21` (some centres not stated) belongs 86 °C; to `CC1=C(c2ccc(Cl)cc2)n2ncc(C#N)c2N(C(=O)CCl)C1`, 138 to 140 °C; to `CS(=O)(=O)c1ccc(Oc2cc(OCc3ccccc3)c3[nH]c(C(N)=O)cc3c2)cc1`, 251 to 252 °C.
In turn, `C=CCOc1ccc2oc(C(=O)OCC)cc2c1` displayed a melting point of 34 to 36 °C.
The figure for `N#CC(=O)c1ccccc1CCl` is 54.5 to 56.5 °C.
The figure for `CC(=O)N=C(OC(C)=O)N1CCSC1c1ccccc1OCCN1CCN(c2cccc(F)c2)CC1` (configuration not stated) is 114 to 115 °C.
Compound `CCOc1nn(Cc2ccc(Cl)cc2Cl)cc1CCCOc1cc(CCC(=O)O)n(-c2ccccc2)n1` registered a melting point of 132 to 133 °C.
To `Nc1ccc([N+](=O)[O-])c(Cl)c1Cl` belongs 170 to 174 °C; to `O=C(Cl)c1c(Cl)c(Cl)c(Cl)c2c(Cl)c(Cl)c(Cl)c(Cl)c12`, 163 to 165 °C; to `COc1ccc(NC(=O)CN2CCC(Cc3ccccc3)CC2)cc1`, 81 to 83 °C.
